Consider two compounds from patent US20100048621A1, “MEDICAMENT FOR TREATING CHRONIC OBSTRUCTIVE PULMONARY DISEASE” (priority 2007, published 2010).

The subject of the test is elastase-treated model mouse of COPD. Briefly: Combination effect of cilostazol/probucol for pulmonary disorder in mouse treated with human neutrophil elastase (COPD model). Format: in vivo, C57BL/6J mouse. To be noted: free feeding from 7 days before intratracheal human neutrophil elastase 20 U/50 μL, lungs 3 weeks after elastase, mean±standard deviation, control 178.8±22.4, normal 51.4±1.9, P<0.01 vs control. An excerpt: Combination effect of cilostazol/probucol for pulmonary disorder in C57BL/6J mouse treated with elastase produced from human neutrophil.
• Animals: female C57BL/6J mice (5 weeks old) which were purchased from Charles River Laboratories Japan, Inc. were used.
Group composition: the following 5 groups. • Non-treated (normal control) group: n=4 • Elastase-treated group (control group): n=6 • Elastase-treated, 0.3% cilostazol-administrated group: n=6 • Elastase-treated, 0.5% probucol-administrated group: n=6 • Elastase-treated, (0.3% cilostazol+0.5% probucol)−administrated group: n=6
Female C57BL/6J mice (5 weeks old) were divided into the given groups by a stratified randomization (using an SAS software, R 8.1) based on each body weight on the starting day of administration. Shortly after the group division, a MF feed was given to the non-treated group and the control group, and a mixed feed in which cilostazol or/and probucol was added in the given ratio was given to the medicament(s)-treated groups, in free feeding. […]
The following groups were statistically analyzed in order to study about the effect of the single-administration and combination-administration of the medicament(s). • 1) Elastase-treated group (control group) • 2) 0.3% Cilostazol-administrated group • 3) 0.5% Probucol-administrated group • 4) (0.3% Cilostazol+0.5% probucol)−administrated group […]

Regarding `O=C1CCc2cc(OCCCCc3nnnn3C3CCCCC3)ccc2N1` [cilostazol, 6-[4-(1-cyclohexyl-1H-tetrazol-5-yl)butoxy]-3,4-dihydrocarbostyril], the “mean linear intercept of pulmonary alveolus” value (0.3% cilostazol in mixed feed) is 116.9±14.3 μm. With `CC(C)(Sc1cc(C(C)(C)C)c(O)c(C(C)(C)C)c1)Sc1cc(C(C)(C)C)c(O)c(C(C)(C)C)c1` [probucol, 4,4′-isopropylidenedithiobis[2,6-di-tert-butylphenol]], the “mean linear intercept of pulmonary alveolus” value (0.5% probucol in mixed feed) was found to be 86.2±4.8 μm.
